Data: publication PMC6510822, “Identification of anticancer OATP2B1 substrates by an in vitro triple-fluorescence-based cytotoxicity screen” (Archives of Toxicology, 2019)
Like-named read-outs stand apart in the source and are kept apart here. Marks after values point to notes of the source that are not given here. Values belong to the compound of their own block, whether it stands above or below them.

Experiments:
[1] = target: T1, OATP2B1 (Homo sapiens, UniProt O94956); test: Inhibition of OATP2B1-mediated Cascade Blue uptake (microplate-based uptake assay, A431-2B1 cells)
T1 sequence (O94956 1-709): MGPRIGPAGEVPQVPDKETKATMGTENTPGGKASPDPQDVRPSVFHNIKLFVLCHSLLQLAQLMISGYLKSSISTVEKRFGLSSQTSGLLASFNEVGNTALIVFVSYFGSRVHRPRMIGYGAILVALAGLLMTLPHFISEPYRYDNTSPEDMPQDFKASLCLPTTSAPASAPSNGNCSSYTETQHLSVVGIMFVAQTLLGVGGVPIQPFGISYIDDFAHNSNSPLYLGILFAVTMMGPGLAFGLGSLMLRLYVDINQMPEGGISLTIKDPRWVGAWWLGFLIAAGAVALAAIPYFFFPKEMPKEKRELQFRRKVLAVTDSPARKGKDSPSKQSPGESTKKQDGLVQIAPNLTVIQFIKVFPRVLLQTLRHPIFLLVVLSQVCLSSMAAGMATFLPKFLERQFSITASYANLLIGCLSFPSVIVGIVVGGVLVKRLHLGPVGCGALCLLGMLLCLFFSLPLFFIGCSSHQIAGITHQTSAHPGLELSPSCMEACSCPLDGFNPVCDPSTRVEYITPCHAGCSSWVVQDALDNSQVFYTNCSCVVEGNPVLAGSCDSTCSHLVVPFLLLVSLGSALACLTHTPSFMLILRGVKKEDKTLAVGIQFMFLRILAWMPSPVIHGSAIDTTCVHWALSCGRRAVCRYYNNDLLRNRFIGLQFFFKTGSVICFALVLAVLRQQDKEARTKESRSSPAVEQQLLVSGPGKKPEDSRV
Description: OATP-expressing A431 cells were seeded (7 × 10^4 cells in 200 µl final volume/well) onto 96-well plates and cultured for 16–24 h at 37 °C, 5% CO2. After reaching confluence, the supernatant was removed and the cells were washed three-times with 200 µl of phosphate-buffered saline (PBS). The cells were preincubated in the presence of the compounds for 5 min at 37 °C. The amount of solvent was kept below 0.5% throughout the study to avoid interference with the fluorescence of the dyes. The reaction was started with the addition of 50 µl Cascade Blue fluorescent dye (10 µM final concentration in a final volume of 100 µl) and the plate was incubated at 37 °C for 30 min (Patik et al. [2018]). The reaction was stopped by the addition of 200 µl ice-cold PBS. The supernatant was rapidly removed, and the cells were washed three-times with 200 µl ice-cold PBS. Finally, 200 µl PBS was added to the cells and fluorescence was measured at room temperature using an EnSpire fluorescent plate reader (Perkin Elmer) at wavelengths 401ex/419em nm.

[2] = test system: A431 cells; test: Fluorescence-based cytotoxicity assay, parental A431 eGFP
Description: (§1) After the transduction, cell lines were tested by flow cytometry and were sorted based on transporter expression/function, and in the case of the OATP2B1-expressing cell line, on CD4 protein expression. Parental, SLCO2B1, ABCG2 and ABCB1 overexpressing cell lines were transduced with the fluorescent protein expressing lentiviral supernatants produced with pRRL-EF1-mCherry, -mOrange or -eGFP expression plasmid in a second round of transduction. Mes-Sa/Dx5-eGFP cells were repeatedly cultured in 500 nM doxorubicin to ensure homogenous expression of Pgp. […] Functional expression of ABCB1 and ABCG2 was regularly checked with cytotoxicity assays using mitoxantrone in the absence or presence of tariquidar.
(§2) All experiments were performed using a robotic pipetting workstation (Hamilton Robotics STAR Let). Cells were seeded at a final cell density of 1875 cells per well in 384-well plates in the triple co-culture (625 cells from each lines) and at 2500 cells per well in the A431 control and A431-2B1 co-culture (1250 cells from both) systems. Co-cultured cells were incubated for 24 h at 37 °C and 5% CO2 under humidified atmosphere prior to the addition of drugs. […] Data were exported to a custom-made program for determining growth inhibition curves for each cell line.
(§3) In the primary screening, IC50 was estimated by the intercept of the linear regression fitted on nearest values. In the confirmatory screening, IC50 values were obtained by sigmoidal curve fitting using the GraphPad Prism software. […] The Resistance Ratio (RR) was calculated by dividing the IC50 values measured against the multidrug resistant, transporter-expressing derivative by the cytotoxicity measured in the parental cell line; the Selectivity Ratio (SR) is the inverse of RR.

[3] = test system: A431-2B1 cells (OATP2B1 expressing); test: Fluorescence-based cytotoxicity assay, OATP2B1-expressing A431-2B1 mCh; conditions: for IC50: 9 concentration points, at least 3 replicates
Description: as §1, §2, §3

[4] = test system: OATP2B1; test: as above; conditions: human
Description: as §1, §2, §3

[5] = test system: Mes-Sa-B1 cells (Pgp overexpressing); test: Fluorescence-based cytotoxicity assay, Mes-Sa-B1 mOr; conditions: for RR (Mes-Sa-B1): resistance ratio = IC50 Mes-Sa-B1 / IC50 parental Mes-Sa
Description: as §1, §2, §3

[6] = test system: Mes-Sa/Dx5 cells; test: Fluorescence-based cytotoxicity assay, Mes-Sa/Dx5 eGFP; conditions: for RR (Dx5): resistance ratio = IC50 Mes-Sa/Dx5 / IC50 parental Mes-Sa
Description: as §1, §2, §3

[7] = test system: A431-G2 cells (ABCG2 expressing); test: Fluorescence-based cytotoxicity assay, ABCG2-expressing A431-G2 mOr
Description: as §1, §2, §3

[8] = test system: A431-B1 cells (ABCB1/P-glycoprotein expressing); test: Fluorescence-based cytotoxicity assay, ABCB1-expressing A431-B1 mCh; conditions: resistance ratio = IC50 A431B1 / IC50 parental A431; triple co-culture screen
Description: All cell lines were cultured at 37 °C, 5% CO2, in Dulbecco’s Modified Eagle’s Medium (DMEM, SigmaAldrich, 52100047), supplemented with 10% FBS, 2 mM L-glutamine and 100 units/mL penicillin and 100 µg/mL streptomycin (ThermoFisher).
as §2
In the primary screening, IC50 was estimated by the intercept of the linear regression fitted on nearest values. In the confirmatory screening, IC50 values were obtained by sigmoidal curve fitting using the GraphPad Prism software. […] The Resistance Ratio (RR) was calculated by dividing the IC50 values measured against the multidrug resistant, transporter-expressing derivative by the cytotoxicity measured in the parental cell line; the Selectivity Ratio (SR) is the inverse of RR. Differences were considered to be biologically relevant at RR > 3 or SR > 3.

[9] = IC50 A431 eGFP / IC50 A4312B1 mCh
[10] = primary screen, co-culture, Fig. 4 inset
[11] = selectivity ratio = IC50 parental Mes-Sa / IC50 Mes-Sa-B1, triple co-culture screen
[12] = selectivity ratio = IC50 parental Mes-Sa / IC50 Mes-Sa/Dx5, triple co-culture screen

IC50 [1]: 265000 ± 31400 nM
SMILES: CN(Cc1cnc2nc(N)nc(N)c2n1)c1ccc(C(=O)N[C@@H](CCC(=O)O)C(=O)O)cc1 [NSC-740, Methotrexate]
IC50 ([2]; Homo sapiens, A-431, read-out: IC50 (µM) A431 eGFP, co-culture): 0.38 µM | IC50 ([2]; Homo sapiens, A-431, read-out: IC50 (µM) A431 eGFP, monoculture): 0.43 µM | SR, co-culture ([3]; IC50 A431 eGFP / IC50 A4312B1 mCh, co-culture): 11.78^** | SR, monoculture [3, 9]: 3.59^** | SR (A431-2B1 vs parental A431), screening of DTP Oncology Set IV [3, 10]: 9.00 | IC50 at […] [4]: 30 nM | IC50 at […] ([4]; A431-2B1 mCherry cells (OATP2B1-expressing), monoculture): 120 nM

SMILES: Nc1nc2nc[nH]c2c(=S)[nH]1 [NSC-752, Thioguanine]
SR (Mes-Sa-B1) [5, 11]: 0.41 | SR (Mes-Sa/DX5) [6, 12]: 6.93

SMILES: S=c1[nH]cnc2nc[nH]c12 [NSC-755, Mercaptopurine]
SR (Mes-Sa-B1) [5, 11]: 0.39 | SR (Mes-Sa/DX5) [6, 12]: 3.87 | Effect of ABCG2 expression on toxicity (A431-G2 vs parental A431) ([7]; triple co-culture, result in words): conferred resistance

SMILES: C1CN1c1nc(N2CC2)nc(N2CC2)n1 [NSC-9706, Triethylenemelamine]
SR (Mes-Sa/DX5) [6]: 26.62

SMILES: O=c1[nH]c(=O)n([C@H]2C[C@H](O)[C@@H](CO)O2)cc1F [NSC-27640, Floxuridin]
SR (A431-2B1 vs parental A431), screening of DTP Oncology Set IV [3, 10]: 12.31

SMILES: CC[C@]1(O)C[C@@H]2CN(CCc3c([nH]c4ccccc34)[C@@](C(=O)OC)(c3cc4c(cc3OC)N(C)[C@H]3[C@@](O)(C(=O)OC)[C@H](OC(C)=O)[C@]5(CC)C=CCN6CC[C@]43[C@@H]65)C2)C1 [NSC-49842, Vinblastine]
RR (Mes-Sa-B1) ([5]; triple co-culture screen): 15.00 | RR (A431B1) [8]: 244.4 | RR (Dx5) ([6]; triple co-culture screen): 11.00

SMILES: Nc1ccn([C@@H]2O[C@H](CO)[C@@H](O)[C@@H]2O)c(=O)n1 [NSC-63878, Cytarabine]
SR (A431-2B1 vs parental A431), screening of DTP Oncology Set IV [3]: > 18.12

SMILES: CC[C@]1(O)C[C@H]2CN(CCc3c([nH]c4ccccc34)[C@@](C(=O)OC)(c3cc4c(cc3OC)N(C=O)[C@H]3[C@@](O)(C(=O)OC)[C@H](OC(C)=O)[C@]5(CC)C=CCN6CC[C@]43[C@@H]65)C2)C1 [NSC-67574, Vincristine]
RR (Mes-Sa-B1) ([5]; triple co-culture screen): 38.00 | RR (A431B1) [8]: 56.8 | RR (Dx5) ([6]; triple co-culture screen): 36.00

SMILES: Cc1c(N)nc([C@H](CC(N)=O)NC[C@H](N)C(N)=O)nc1C(=O)N[C@H](C(=O)N[C@H](C)[C@@H](O)[C@H](C)C(=O)N[C@H](C(=O)NCCc1nc(-c2nc(C(=O)NCCC[S+](C)C)cs2)cs1)[C@@H](C)O)[C@@H](OC1OC(CO)C(O)C(O)C1OC1OC(CO)C(O)C(OC(N)=O)C1O)c1cnc[nH]1 (stereo partly drawn) [NSC-125066, Bleomycin]
IC50 ([1]; read-out: IC50, inhibition of OATP2B1-mediated Cascade Blue (CB) uptake, CB 10 µM, 30 min, average ± SD): 64200 ± 6100 nM | IC50 ([2]; read-out: IC50 (µM) A431 eGFP, co-culture, co-culture with A431-2B1 mCh, 9 concentration points, at least 3 replicates): 7.47 µM | IC50 ([2]; read-out: IC50 (µM) A431 eGFP, monoculture, 9 concentration points, at least 3 replicates): 16.3 µM | IC50 ([3]; read-out: IC50 (µM) A4312B1 mCh, co-culture, co-culture with A431 eGFP): 0.83 µM | IC50 ([3]; read-out: IC50 (µM) A4312B1 mCh, monoculture): 1.5 µM | SR (Mes-Sa/DX5) [6, 12]: 57.8

SMILES: CC(=O)O[C@H]1C(=O)[C@@]2(C)[C@H]([C@H](OC(=O)c3ccccc3)[C@]3(O)C[C@H](OC(=O)[C@H](O)[C@@H](NC(=O)c4ccccc4)c4ccccc4)C(C)=C1C3(C)C)[C@]1(OC(C)=O)CO[C@@H]1C[C@@H]2O [NSC-125973, Taxol]
RR (Mes-Sa-B1) ([5]; triple co-culture screen): 593.3 | RR (A431B1) [8]: 50.91 | Effect of OATP2B1 expression on toxicity (A431-2B1 vs A431 eGFP) ([3]; co-culture screen, result in words): not transported by OATP2B1 | RR (Dx5) ([6]; triple co-culture screen): 497.67

IC50 [1]: 11000 ± 700 nM
SMILES: CC/C(=C(\c1ccccc1)c1ccc(OCCN(C)C)cc1)c1ccccc1 [NSC-180973, Tamoxifen]
SR, monoculture [3, 9]: 0.9 | SR (A431-2B1 vs parental A431), screening of DTP Oncology Set IV [3, 10]: 3.49

SMILES: Nc1nc(Cl)nc2c1ncn2[C@@H]1O[C@H](CO)[C@@H](O)[C@@H]1F [NSC-606869, Clofarabine]
SR (Mes-Sa-B1) [5]: 0.91 | SR (Mes-Sa/DX5) [6, 12]: 3.44 | Effect of ABCG2 expression on toxicity (A431-G2 vs parental A431) [7]: conferred resistance

SMILES: CCC1=C[C@@H]2CN(C1)Cc1c([nH]c3ccccc13)[C@@](C(=O)OC)(c1cc3c(cc1OC)N(C)[C@H]1[C@@](O)(C(=O)OC)[C@H](OC(C)=O)[C@]4(CC)C=CCN5CC[C@]31[C@@H]54)C2 [NSC-608210, Vinorelbine]
RR (Mes-Sa-B1) ([5]; triple co-culture screen): 725.00 | RR (A431B1) [8]: 232.00 | RR (Dx5) ([6]; triple co-culture screen): 861.00

SMILES: Nc1ccn([C@@H]2O[C@H](CO)[C@@H](O)C2(F)F)c(=O)n1 [NSC-613327, Gemcitabine]
SR (A431-2B1 vs parental A431), screening of DTP Oncology Set IV [3, 10]: 16.5
